The nature of series [1]: Solubility of dolutegravir in types of potable water (FIG. 1). It is filed as physicochemical. The settings on record: water with no ions present (purified water) vs other types of potable water. An excerpt:
The solubility of dolutegravir is affected by the use of different types of potable water, for example purified water, tap water and different brands of bottled water (see FIG. 1). The reason for this difference in solubility is believed to be due to the presence of ions typically found in water. When water with no ions present (purified water) is used to disperse dolutegravir, the solubility of dolutegravir is increased and a significant bitter taste may be observed.

A short description of series [2]: Dolutegravir solubility in the presence of monovalent and divalent ions. The class given is physicochemical. To be noted: thermodynamic from solid, 20 mg in 12 ml. How it is done: Solubility was determined by dissolving 20 mg of dolutegravir into 12 ml of water containing the specified ion (see Table 1) at a concentration of 500 ppm.

SMILES strings stand for the structures.

As for `C[C@@H]1CCO[C@H]2Cn3cc(C(=O)NCc4ccc(F)cc4F)c(=O)c(O)c3C(=O)N12` [Dolutegravir, (4RX,12aS)-N-[(2,4-difluorophenyl)methyl]-7-hydroxy-4-methyl-6,8-dioxo-3,4,12,12a-tetrahydro-2H-pyrido[5,6]pyrazino[2,6-b][1,3]oxazine-9-carboxamide], in series [1], the solubility of dolutegravir result was “increased”. Besides, the solubility in series [2] (aqueous buffer, water containing calcium ion 500 ppm) turned out to be 30 µg/mL; in series [2] (aqueous buffer, water containing magnesium ion 500 ppm) it was 210 µg/mL; in series [2] (aqueous buffer, water containing potassium ion 500 ppm) it was 780 µg/mL; in series [2] (aqueous buffer, water containing sodium ion 500 ppm), 460 µg/mL; in series [2] (no ion (purified water)), 1200 µg/mL.

The values above are taken from patent US20230285307A1, “Dispersible Tablet Formulations Comprising Dolutegravir” (ViiV Healthcare Company, priority 2020, published 2023).
